From US20240190889A1, “NEW CYCLOPENTA-THIENO-DIAZEPINE DERIVATIVES AS GABA A GAMMA1 POSITIVE ALLOSTERIC MODULATORS” (Hoffmann-La Roche Inc., priority 2021, published 2024)
Read-outs that look alike come from different tables or passages of the source.

What was measured:
[1] = molecular target: human GABAA α2β2γ1 receptor (Homo sapiens (Human), UniProt P47869+Q8N1C3); assay: Radioligand binding assay, competition for [3H]RO7239181, γ1-containing GABAA subtypes
Description: (§1) Membrane Preparation and Binding Assay for γ1-containing GABAA Subtypes
(§2) The affinity of compounds at GABAA γ1 subunit-containing receptors was measured by competition for [^3H]RO7239181 (67.3 Ci/mmol: Roche) binding to membranes from HEK293F cells (ThermoFisher R79007) expressing human (transiently transfected) receptors of composition α5β2γ1, α2β2γ1, α1β2γ1.
(§3) Harvested pellets from HEK293F cells expressing the different GABAA receptor subtypes were resuspended in Mannitol Buffer pH 7.2-7.4 (Mannitol 0.29 M, Tricthylamine 10 mM. Acetic acid 10 mM. EDTA 1 mM plus protease inhibitors (20 tablets Complete. Roche Diagnostics Cat. No. 05 056 489 001 per liter)), washed two times and then resuspended at 1:10 to 1:15 dilution in the same buffer. Cell disruption was performed by stirring the suspension in a Parr vessel #4637 at 435 psi for 15 minutes, and then the suspensions were centrifuged at 1000×g for 15 minutes at 4° C. (Beckman Avanti J-HC: rotor JS-4.2). The supernatant (S1) was transferred in a 21 Schott flask and the pellet (P1) was resuspended with Mannitol Buffer up to 175 ml. The resuspended pellet was transferred into a 250 ml Corning centrifugal beaker and centrifuged at 1500 ×g for 10 minutes at 4° C. (Beckman Avanti J-HC: rotor JS-4.2). The supernatant (S1) was then transferred in the 21 Schott flask and the pellet was discarded. The supernatants (S1) were centrifuged in 500ml Beckman polypropylene centrifugal beaker at 15 000×g for 30 minutes at 4° C. (Beckman Avanti J-20 XP; rotor JLA-10.500). The pellet (P2) was resuspended with Mannitol Buffer 1:1 and frozen at −80° C. The supernatant (S2) was centrifuged in 100 ml Beckman polypropylene centrifugal tubes at 48000×g for 50 minutes at 4 °C (Beckman Avanti J-20 XP: rotor JA-18). The supernatant (S3) was discarded and the pellet (P3) was resuspended with 1:1 Mannitol Buffer. The P2 and P3 protein concentration was determined with the BIORAD Standard assay method with bovine serum albumin as standard and measured on the NANO-Drop 1000. The membrane suspension was aliquots (500μl per tube) and stored at −80° C. until required.
(§4) Membrane homogenates were resuspended and polytronised (Polytron PT1200E Kinematica AG) in Potassium Phosphate 10 mM, KCl 100 mM binding buffer at pH 7.4 to a final assay concentration determined with a previous experiment.
(§5) Radioligand binding assays were carried out in a volume of 200 μL (96-well plates) which contained 100 μL of cell membranes. […] Assays were incubated to equilibrium for 1 hour at 4° C. and then, membranes were filtered onto unifilter (96-well white microplate with bonded GF/C filters preincubated 20-50 minutes in 0.3% Polyethylenimine) with a Filtermate 196 harvester (Packard BioScience) and washed 4 times with cold Potassium Phosphate 10 mM pH 7.4. KCl 100 mM binding buffer. After anhydrousing, filter-retained radioactivity was detected by liquid scintillation counting. Ki values were calculated using Excel-Fit (Microsoft) and are the means of two determinations.

[2] = molecular target: human GABAA α1β3γ2 receptor (Homo sapiens (Human), UniProt P14867+P18507); assay: Radioligand binding assay, competition for [3H]Flumazenil, γ2-containing GABAA subtypes; conditions: for γ2/γ1 Selectivity Ratio: Ki α1β3γ2 (nM)/Ki α2β2γ1 (nM); for LogSel: Log[Ki α1β3γ2 (nM)/Ki α2β2γ1 (nM)]
Description: Membrane Preparation and Binding Assay for γ2-containing GABAA Subtypes
The affinity of compounds at GABAA γ2 subunit-containing receptors was measured by competition for [^3H]Flumazenil (81.1 Ci/mmol; Roche) binding to HEK293F cells expressing human (transiently transfected) receptors of composition α1β3γ2.
Harvested pellets from HEK293F cells expressing the different GABAA γ2 receptor subtypes were resuspended in Mannitol Buffer pH 7,2-7,4 and processed as described above for the cells expressing the GABAA γ1 subunit-containing receptors.
Assays were incubated to equilibrium for 1 hour at 4° C, and harvested onto GF/C uni-filters (Packard) by filtration using a Packard harvester and washing with ice-cold wash buffer (50 mM Tris; pH 7.5). After anhydrousing, filter-retained radioactivity was detected by liquid scintillation counting. Ki values were calculated using Excel-Fit (Microsoft) and are the means of two determinations.

[3] = molecular target: h-GABA-A α2β2γ1 receptor expressed in Xenopus laevis oocytes (Homo sapiens (Human), UniProt P47869+Q8N1C3); assay: Two-electrode voltage clamp electrophysiology in Xenopus oocytes expressing GABAA receptors; type: cell-based; conditions: reference PAMs, GABA EC20
From the text: Functional Expression of GABAA Receptors:
Xenopus Oocytes Preparation
Xenopus laevis oocytes at maturation stages V-VI were used for the expression of cloned mRNA encoding GABAA receptor subunits. Oocytes ready for RNA micro-injection were bought from Ecocyte, Castrop-Rauxel, Germany and stored in modified Barth's medium (composition in mM: NaCl 88, KCl 1, NaHCO3 2.4, HEPES 10, MgSO4 0.82, CaNO3 0.33, CaCl2 0.33, pH=7.5) at 20 C. until the experiment.
Xenopus Oocytes Microinjection
Oocytes were plated in 96-well plates for microinjection using the Roboinject automated instrument (MultiChannelSystems, Reutlingen, Germany). Approximately 50 nL of an aqueous solution containing the RNA transcripts for the subunits of the desired GABAA receptor subtype was injected into each oocyte. […] Oocytes were kept in modified Barth's medium (composition in mM: NaCl 88, KCl 1, NaHCO3 […], HEPES 10, MgSO4 0.82, CaNO3 0.33, CaCl2 0.33, pH=7.5) at 20° C. until the experiment.
Electrophysiological experiments were performed using the Roboocyte instrument (MultiChannelSystems, Reutlingen, Germany) on days 3 to 5 after the micro-injection of mRNA. During the experiment the oocytes were constantly superfused by a solution containing (in mM) NaCl 90, KCl 1, HEPES 5, MgCl: 1, CaCl, 1 (pH 7.4). Oocytes were impaled by two glass microelectrodes (resistance: 0.5-0.8 MS2) which were filled with a solution containing KCl 1M +K-acetate 1.5 M and voltage-clamped to −80 mV. The recordings were performed at room temperature using the Roboocyte two-electrode voltage clamp system (Multichannelsystem). After an initial equilibration period of 1.5 min GABA was added for 1.5 min at a concentration evoking approximately 20% of a maximal current response (EC20). After another rest interval of 2.5 min GABA was again added evoking a response of similar amplitude and shape. […] Current traces were recorded at a digitization rate of 10 Hz during and shortly before and after the GABA application.
Each compound and concentration was tested on at least 3 oocytes. Different oocytes were used for different compound concentrations.
For the analysis, the digitized current traces of the first and second GABA response were superimposed and, if necessary, rescaled to equal maximal amplitudes. The ratio between the two responses during the time interval of test compound application was calculated point by point. The extremum of the resulting “ratio trace” was taken as the efficacy (“Fold increase”) of the compound expressed as “% modulation of GABA EC” (100* (Fold increase-1)).

[4] = molecular target: human GABAA α5β2γ1 receptor (Homo sapiens (Human), UniProt P31644+Q8N1C3); assay: Radioligand binding assay, competition for [3H]RO7239181, γ1-containing GABAA subtypes; conditions: membranes from HEK293F cells, mean of two determinations
Description: as §1
as §2, with “α1β2γ1. For better protein expression of the α2 subunit-containing receptors, the 28 amino acid long signal peptide (Metl to Ala28) of the human GABAA α2 subunit was substituted by the 31 amino acid long signal peptide (Met1 to Ser31) of human GABAA α5 subunit.” for “α1β2γ1.”
as §3, §4
Radioligand binding assays were carried out in a volume of 200 μL (96-well plates) which contained 100 μL of cell membranes. [^3H]RO7239181 at a concentration of 1.5 nM (α5β2γ1) or 20-30 nM (α1β2γ1, α2β2γ1) and the test compound in the range of [0.3-10000]33 10^−9 M. Nonspecific binding was defined by […] (α5β2γ1) and […] RO7239181 and typically represented less than 5% (α5β2γ1) and less than 20% (α1β2γ1, α2β2γ1) of the total binding. Assays were incubated to equilibrium for 1 hour at 4° C. and then, membranes were filtered onto unifilter (96-well white microplate with bonded GF/C filters preincubated 20-50 minutes in 0.3% Polyethylenimine) with a Filtermate 196 harvester (Packard BioScience) and washed 4 times with cold Potassium Phosphate 10 mM pH 7.4. KCl 100 mM binding buffer. After anhydrousing, filter-retained radioactivity was detected by liquid scintillation counting. Ki values were calculated using Excel-Fit (Microsoft) and are the means of two determinations.
Representative test results, obtained by the above described assay measuring binding affinity to HEK293 cells expressing human (h) receptors, are shown in the Table 1.

[5] = molecular target: human GABAA α1β2γ1 receptor (Homo sapiens (Human), UniProt P14867+Q8N1C3); assay: as above
Description: as §1, §2, §3, §4, §5

SMILES	Ki [1] [nM]	Ki ([2]; HEK293F cell membranes, [3H]Flumazenil 1 nM, mean of two determinations, read-out: Ki h-GABAA α1β3γ2) [nM]	γ2/γ1 Selectivity Ratio [2]	LogSel [2]	potentiation of the GABA-induced current in α2β2γ1 GABAA receptor subtype expressing oocytes [3] [%]	Ki [2] [nM]	Ki ([1]; read-out: Ki h-GABAA α2β2γ1, membranes from HEK293F cells, [3H]RO7239181 20-30 nM, mean of two determinations) [nM]	Ki [4] [nM]	Ki [5] [nM]
CCOC(=O)C1Cc2sc3c(c2C1)C(c1ccccc1Cl)=NCc1nnc(C)n1-3 (centres unmarked) [RE-B, reference compound]	734	1220	1.66	0.22	–	–	–	–	–
CN1C(=O)CN=C(c2ccccc2F)c2cc([N+](=O)[O-])ccc21 [Flunitrazepam, reference compound]	–	–	–	–	~60	–	–	–	–
Cc1nnc2n1-c1sc3c(c1C(c1ccccc1Cl)=NC2)CCC3 [RE-A, reference compound]	17.5	–	0.38	−0.42	–	6.6	–	–	–
C[C@@H]1N=C(c2c(F)cccc2F)c2c(sc3c2C[C@H](C(F)F)C3)-n2c(CO)cnc21 [Example 22, [(7S,13S)-13-(difluoromethyl)-9-(2,6-difluorophenyl)-7-methyl-16-thia-2,5,8-triazatetracyclo [8.6.0.02,6.011,15]hexadeca-1(10),3,5,8,11(15)-pentaen-3-yl]methanol]	10.2	–	–	1.75	–	2510	10.2	44.3	–
Cc1ncc2n1-c1ccc(Cl)cc1C(c1ccccc1F)=NC2 [Midazolam, reference compound]	–	–	0.0068	−2.2	~60	–	–	–	–
Cc1nnc2n1-c1ccc(Cl)cc1C(c1ccccc1)=NC2 [Alprazolam, reference compound]	–	–	0.0050	−2.3	–	–	–	–	–
Cc1nnc2n1-c1sc3c(c1C(c1c(F)cccc1F)=N[C@H]2C)CCC3 [RE-C, (7S)-9-(2,6-difluorophenyl)-3,7-dimethyl-16-thia-2,4,5,8-tetrazatetracyclo [8.6.0.02,6.011,15]hexadeca-1(10),3,5,8,11(15)-pentaene, reference compound]	20.4	–	0.84	−0.07	–	17.2	–	–	2.59
Cc1nnc2n1-c1ccc(Cl)cc1C(c1ccccc1Cl)=NC2 [Triazolam, reference compound]	–	–	–	−1.5	~60	–	–	–	–
